Experimental data published in ChEMBL document CHEMBL5291721, “A preclinical secondary pharmacology resource illuminates target-adverse drug reaction associations of marketed drugs” (Nat Commun, 2023).

Experiments:
[1] = target: T1, Adenosine receptor A3 (Homo sapiens, UniProt P0DMS8)
T1 sequence (P0DMS8 whole entry): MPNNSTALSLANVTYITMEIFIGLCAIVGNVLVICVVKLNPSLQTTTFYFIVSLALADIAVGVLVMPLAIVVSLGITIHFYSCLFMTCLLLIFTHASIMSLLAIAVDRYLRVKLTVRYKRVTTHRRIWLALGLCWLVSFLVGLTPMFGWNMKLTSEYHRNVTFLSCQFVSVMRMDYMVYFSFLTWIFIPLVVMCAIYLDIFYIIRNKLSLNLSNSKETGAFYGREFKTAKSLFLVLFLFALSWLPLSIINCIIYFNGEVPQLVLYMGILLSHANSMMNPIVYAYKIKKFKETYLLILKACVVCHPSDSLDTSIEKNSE

[2] = target: T2, Alpha-1A adrenergic receptor (Homo sapiens, UniProt P35348); assay type: functional, cell-based
T2 sequence (P35348 whole entry): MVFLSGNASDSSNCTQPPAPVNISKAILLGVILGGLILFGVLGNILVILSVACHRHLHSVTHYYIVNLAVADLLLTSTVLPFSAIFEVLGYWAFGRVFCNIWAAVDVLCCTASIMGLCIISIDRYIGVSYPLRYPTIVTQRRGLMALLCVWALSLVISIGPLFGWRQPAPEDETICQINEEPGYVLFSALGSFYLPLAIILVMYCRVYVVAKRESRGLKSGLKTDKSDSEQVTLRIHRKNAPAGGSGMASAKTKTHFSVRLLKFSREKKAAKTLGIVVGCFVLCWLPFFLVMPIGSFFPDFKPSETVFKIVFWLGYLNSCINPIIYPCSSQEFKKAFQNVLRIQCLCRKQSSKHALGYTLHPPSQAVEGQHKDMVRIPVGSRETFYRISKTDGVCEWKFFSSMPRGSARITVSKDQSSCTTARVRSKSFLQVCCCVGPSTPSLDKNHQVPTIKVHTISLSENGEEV

[3] = target: T3, Alpha-2C adrenergic receptor (Homo sapiens, UniProt P18825); assay type: functional
T3 sequence (P18825 whole entry): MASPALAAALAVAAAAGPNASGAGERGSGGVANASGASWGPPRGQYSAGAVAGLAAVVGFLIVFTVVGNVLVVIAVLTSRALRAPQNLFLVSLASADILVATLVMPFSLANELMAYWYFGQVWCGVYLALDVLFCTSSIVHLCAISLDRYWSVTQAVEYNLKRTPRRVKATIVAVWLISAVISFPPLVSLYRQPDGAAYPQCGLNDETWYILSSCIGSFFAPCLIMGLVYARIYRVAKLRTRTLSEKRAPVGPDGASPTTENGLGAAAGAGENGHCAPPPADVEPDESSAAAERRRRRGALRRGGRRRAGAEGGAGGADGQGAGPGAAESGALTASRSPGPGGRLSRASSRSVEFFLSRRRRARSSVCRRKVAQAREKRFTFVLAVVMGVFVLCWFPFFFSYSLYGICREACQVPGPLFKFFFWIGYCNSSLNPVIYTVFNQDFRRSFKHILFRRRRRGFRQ

[4] = target: T4, B2 bradykinin receptor (Homo sapiens, UniProt P30411)
T4 sequence (P30411 whole entry): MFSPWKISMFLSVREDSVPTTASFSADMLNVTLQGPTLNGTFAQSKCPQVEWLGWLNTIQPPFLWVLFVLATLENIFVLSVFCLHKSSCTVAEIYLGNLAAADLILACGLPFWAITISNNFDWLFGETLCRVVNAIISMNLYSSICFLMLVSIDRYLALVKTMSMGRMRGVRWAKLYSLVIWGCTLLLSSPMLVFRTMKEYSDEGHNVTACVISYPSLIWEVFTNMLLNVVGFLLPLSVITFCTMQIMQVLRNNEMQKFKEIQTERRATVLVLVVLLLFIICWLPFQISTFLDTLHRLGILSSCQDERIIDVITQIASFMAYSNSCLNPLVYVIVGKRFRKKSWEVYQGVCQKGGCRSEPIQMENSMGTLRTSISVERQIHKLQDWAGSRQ

[5] = target: T5, Cannabinoid receptor 1 (Homo sapiens, UniProt P21554); assay type: functional, cell-based
[6] = target: T5, Cannabinoid receptor 1; assay type: functional, cell-based; remark: listed apart in the source
[7] = target: T5, Cannabinoid receptor 1
[8] = target: T6, Estrogen receptor (Homo sapiens, UniProt P03372)
T6 sequence (P03372 whole entry): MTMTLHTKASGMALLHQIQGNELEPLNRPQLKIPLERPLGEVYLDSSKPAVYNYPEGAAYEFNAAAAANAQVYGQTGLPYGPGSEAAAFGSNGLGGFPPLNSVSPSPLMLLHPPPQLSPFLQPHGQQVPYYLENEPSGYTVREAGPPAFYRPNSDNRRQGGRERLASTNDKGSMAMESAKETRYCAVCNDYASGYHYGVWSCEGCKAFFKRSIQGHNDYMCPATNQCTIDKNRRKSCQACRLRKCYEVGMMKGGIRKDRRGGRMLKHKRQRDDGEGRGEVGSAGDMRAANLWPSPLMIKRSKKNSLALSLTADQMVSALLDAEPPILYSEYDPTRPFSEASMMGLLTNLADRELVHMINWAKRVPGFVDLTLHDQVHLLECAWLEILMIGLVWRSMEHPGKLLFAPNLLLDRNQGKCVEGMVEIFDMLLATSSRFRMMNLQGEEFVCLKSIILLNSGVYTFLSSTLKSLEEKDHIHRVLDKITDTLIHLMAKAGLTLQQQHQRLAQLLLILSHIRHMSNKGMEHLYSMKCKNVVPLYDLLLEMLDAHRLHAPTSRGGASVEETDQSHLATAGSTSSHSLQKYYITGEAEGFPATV

[9] = target: T6, Estrogen receptor; remark: listed apart in the source
[10] = target: Melanocortin receptor 3 (Homo sapiens, UniProt P41968)
[11] = target: Melanocortin receptor 4 (Homo sapiens, UniProt P32245)
[12] = target: D(3) dopamine receptor (Homo sapiens, UniProt P35462)
[13] = target: T7, 5-hydroxytryptamine receptor 2B (Homo sapiens, UniProt P41595); assay type: functional, cell-based
[14] = target: T7, 5-hydroxytryptamine receptor 2B; assay type: functional, cell-based; remark: listed apart in the source
[15] = target: T8, Mu-type opioid receptor (Homo sapiens, UniProt P35372); experiment: biochemical; assay type: functional
[16] = target: T8, Mu-type opioid receptor

Measured: AC50
Note: assay procedure not described here.

T5 sequence (P21554 whole entry): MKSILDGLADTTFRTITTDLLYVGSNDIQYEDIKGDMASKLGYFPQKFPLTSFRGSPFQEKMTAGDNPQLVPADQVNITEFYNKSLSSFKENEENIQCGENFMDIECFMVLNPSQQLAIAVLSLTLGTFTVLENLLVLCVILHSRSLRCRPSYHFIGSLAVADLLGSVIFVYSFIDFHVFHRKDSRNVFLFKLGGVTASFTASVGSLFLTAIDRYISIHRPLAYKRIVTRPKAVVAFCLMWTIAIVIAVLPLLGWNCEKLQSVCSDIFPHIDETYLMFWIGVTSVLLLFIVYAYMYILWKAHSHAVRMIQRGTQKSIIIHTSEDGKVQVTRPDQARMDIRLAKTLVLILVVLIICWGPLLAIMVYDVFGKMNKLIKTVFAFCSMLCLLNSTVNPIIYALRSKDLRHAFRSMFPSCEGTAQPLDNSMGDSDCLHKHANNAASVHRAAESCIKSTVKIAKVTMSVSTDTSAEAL
Chain of Melanocortin receptor 4 (P32245 whole entry): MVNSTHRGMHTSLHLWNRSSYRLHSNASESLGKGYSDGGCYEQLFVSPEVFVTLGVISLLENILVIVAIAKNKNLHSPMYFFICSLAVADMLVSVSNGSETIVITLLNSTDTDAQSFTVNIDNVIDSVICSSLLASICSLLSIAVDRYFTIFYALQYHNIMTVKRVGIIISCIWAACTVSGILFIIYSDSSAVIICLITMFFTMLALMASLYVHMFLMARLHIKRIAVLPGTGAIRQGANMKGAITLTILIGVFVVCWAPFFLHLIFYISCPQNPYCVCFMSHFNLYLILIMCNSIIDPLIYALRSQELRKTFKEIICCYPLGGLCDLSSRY
T8 sequence (P35372 whole entry): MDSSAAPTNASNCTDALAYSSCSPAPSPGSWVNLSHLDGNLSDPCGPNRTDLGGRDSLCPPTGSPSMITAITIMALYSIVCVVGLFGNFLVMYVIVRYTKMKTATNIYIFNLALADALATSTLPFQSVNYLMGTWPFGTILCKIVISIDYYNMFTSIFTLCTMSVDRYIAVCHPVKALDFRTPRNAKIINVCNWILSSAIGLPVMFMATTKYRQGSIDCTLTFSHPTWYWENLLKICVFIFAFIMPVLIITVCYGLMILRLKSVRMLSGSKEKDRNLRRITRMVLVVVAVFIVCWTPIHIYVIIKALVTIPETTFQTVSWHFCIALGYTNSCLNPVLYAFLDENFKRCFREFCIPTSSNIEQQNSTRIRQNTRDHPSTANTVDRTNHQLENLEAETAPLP
T7 sequence (P41595 whole entry): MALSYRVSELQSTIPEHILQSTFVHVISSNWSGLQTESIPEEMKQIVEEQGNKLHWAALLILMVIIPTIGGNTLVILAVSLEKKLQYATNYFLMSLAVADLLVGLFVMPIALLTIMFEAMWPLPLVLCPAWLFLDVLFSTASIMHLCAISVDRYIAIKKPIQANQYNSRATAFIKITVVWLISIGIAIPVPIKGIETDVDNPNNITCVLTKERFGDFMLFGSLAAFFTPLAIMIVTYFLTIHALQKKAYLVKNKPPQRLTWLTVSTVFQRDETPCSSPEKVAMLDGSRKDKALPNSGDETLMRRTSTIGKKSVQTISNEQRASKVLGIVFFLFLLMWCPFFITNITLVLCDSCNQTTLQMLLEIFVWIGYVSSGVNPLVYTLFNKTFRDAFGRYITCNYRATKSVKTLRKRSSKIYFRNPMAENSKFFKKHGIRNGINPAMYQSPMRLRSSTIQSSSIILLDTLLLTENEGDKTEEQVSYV
Chain of Melanocortin receptor 3 (P41968 whole entry): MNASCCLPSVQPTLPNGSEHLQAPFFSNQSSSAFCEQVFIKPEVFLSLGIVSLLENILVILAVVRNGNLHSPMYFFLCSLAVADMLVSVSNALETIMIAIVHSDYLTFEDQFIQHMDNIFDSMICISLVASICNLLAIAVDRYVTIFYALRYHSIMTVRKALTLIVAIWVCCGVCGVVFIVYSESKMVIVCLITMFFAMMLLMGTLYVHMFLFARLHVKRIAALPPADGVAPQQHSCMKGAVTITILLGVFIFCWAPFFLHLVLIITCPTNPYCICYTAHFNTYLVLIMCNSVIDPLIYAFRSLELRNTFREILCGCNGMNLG
Chain of D(3) dopamine receptor (P35462 whole entry): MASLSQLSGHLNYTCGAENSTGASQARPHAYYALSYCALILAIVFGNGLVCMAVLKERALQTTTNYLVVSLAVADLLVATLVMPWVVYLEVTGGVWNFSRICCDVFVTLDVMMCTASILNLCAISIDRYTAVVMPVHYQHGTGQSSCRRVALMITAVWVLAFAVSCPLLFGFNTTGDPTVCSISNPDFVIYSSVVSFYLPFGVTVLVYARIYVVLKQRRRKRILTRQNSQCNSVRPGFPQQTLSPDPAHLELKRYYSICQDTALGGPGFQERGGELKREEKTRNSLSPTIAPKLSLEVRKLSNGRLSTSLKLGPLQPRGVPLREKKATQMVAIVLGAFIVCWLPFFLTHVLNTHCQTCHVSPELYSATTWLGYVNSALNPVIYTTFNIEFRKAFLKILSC

O=C(O)COCCN1CCN(C(c2ccccc2)c2ccc(Cl)cc2)CC1 (stereo not given) [CETIRIZINE]
> 10 µM: [3] | [7]
not listed: [12] | [13] | [14] | [15] | [16]
> 30 µM: all other assays above

COC(=O)[C@H]1[C@H]2C[C@@H]3c4[nH]c5cc(OC)ccc5c4CCN3C[C@H]2C[C@@H](OC(=O)c2cc(OC)c(OC)c(OC)c2)[C@@H]1OC [RESERPINE]
> 30 µM: [2] | [3] | [12] | [15]
17.7 µM: [1]
3.77 µM: [16]
> 10 µM: [4] | [7] | [13] | [14] | [10] | [11]

O=C(O)c1cccnc1Nc1cccc(C(F)(F)F)c1 [NIFLUMIC ACID]
> 10 µM: [3] | [4] | [7] | [8] | [13] | [14] | [10] | [11]
> 30 µM: [15]

COc1ccc([C@@H]2CC(=O)c3c(O)cc(O)cc3O2)cc1O [HESPERETIN]
> 10 µM: [3] | [4] | [7] | [8] | [13] | [14] | [10] | [11]
> 30 µM: [15]

C[C@]12C=CC(=O)C=C1CC[C@@H]1[C@@H]2CC[C@]2(C)OC(=O)CC[C@@H]12 [TESTOLACTONE]
> 30 µM: [5] | [6] | [13] | [14] | [15]
> 10 µM: [3] | [4] | [7] | [8] | [10] | [11]

O=C1c2cccc3c2[C@H](CCC3)CN1[C@@H]1CN2CCC1CC2 [PALONOSETRON]
4 µM: [3]
> 30 µM: [4] | [7] | [8] | [13] | [14] | [10] | [11] | [15]

C/C=C(/C(=C/C)c1ccc(O)cc1)c1ccc(O)cc1 [DIENESTROL]
0.0035 µM: [8]
> 10 µM: [3] | [4] | [7] | [13] | [14] | [10] | [11]
> 30 µM: [15]

CN(Cc1cnc2nc(N)nc(N)c2n1)c1ccc(C(=O)N[C@@H](CCC(=O)O)C(=O)O)cc1 [METHOTREXATE]
> 30 µM: [4] | [5] | [6] | [8] | [10] | [11]
> 10 µM: [3] | [7] | [13] | [14]

CCC[C@@H]1C[C@@H](C(=O)N[C@@H]([C@H]2O[C@H](SC)[C@H](O)[C@@H](O)[C@H]2O)[C@@H](C)O)N(C)C1 [LINCOMYCIN]
> 10 µM: [3] | [4] | [7] | [8] | [10] | [11]
> 30 µM: [5] | [6] | [13] | [14] | [15]

O=C(/C=C/c1cccc(S(=O)(=O)Nc2ccccc2)c1)NO [BELINOSTAT]
> 10 µM: [3] | [7]
27.9 µM: [9]
> 30 µM: [4] | [12] | [8] | [10] | [11] | [16]
